Article PMC8899467 (Frontiers in Pharmacology, 2022)

What was measured:
[1] = biological target: T1, bovine fibrinogen (Bos taurus, UniProt P02672+P02676+P12799); experiment: intrinsic Trp fluorescence quenching; assay type: binding; settings: 0.8 mg/ml fibrinogen, Tyrode buffer pH 7.4, 37 °C, 15 min
T1 construct: gene FGA; native plasma protein, Sigma-Aldrich; hexamer
T1 sequence (P02672 20-615): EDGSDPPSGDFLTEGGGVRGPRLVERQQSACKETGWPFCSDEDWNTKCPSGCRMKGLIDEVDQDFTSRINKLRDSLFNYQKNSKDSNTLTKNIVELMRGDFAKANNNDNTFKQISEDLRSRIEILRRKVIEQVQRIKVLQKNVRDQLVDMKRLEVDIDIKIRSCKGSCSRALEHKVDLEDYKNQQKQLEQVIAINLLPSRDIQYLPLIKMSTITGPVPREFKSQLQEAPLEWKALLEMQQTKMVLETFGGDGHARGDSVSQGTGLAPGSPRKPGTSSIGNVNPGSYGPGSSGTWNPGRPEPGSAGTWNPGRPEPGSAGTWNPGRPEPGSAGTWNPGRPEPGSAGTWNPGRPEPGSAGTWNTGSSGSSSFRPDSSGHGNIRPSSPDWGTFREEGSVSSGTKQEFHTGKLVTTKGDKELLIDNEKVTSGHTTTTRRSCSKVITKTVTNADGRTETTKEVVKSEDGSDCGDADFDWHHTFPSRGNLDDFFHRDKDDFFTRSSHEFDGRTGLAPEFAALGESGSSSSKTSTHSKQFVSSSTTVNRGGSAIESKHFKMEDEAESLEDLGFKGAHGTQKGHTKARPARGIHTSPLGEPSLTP
T1 sequence (P02676 1-468): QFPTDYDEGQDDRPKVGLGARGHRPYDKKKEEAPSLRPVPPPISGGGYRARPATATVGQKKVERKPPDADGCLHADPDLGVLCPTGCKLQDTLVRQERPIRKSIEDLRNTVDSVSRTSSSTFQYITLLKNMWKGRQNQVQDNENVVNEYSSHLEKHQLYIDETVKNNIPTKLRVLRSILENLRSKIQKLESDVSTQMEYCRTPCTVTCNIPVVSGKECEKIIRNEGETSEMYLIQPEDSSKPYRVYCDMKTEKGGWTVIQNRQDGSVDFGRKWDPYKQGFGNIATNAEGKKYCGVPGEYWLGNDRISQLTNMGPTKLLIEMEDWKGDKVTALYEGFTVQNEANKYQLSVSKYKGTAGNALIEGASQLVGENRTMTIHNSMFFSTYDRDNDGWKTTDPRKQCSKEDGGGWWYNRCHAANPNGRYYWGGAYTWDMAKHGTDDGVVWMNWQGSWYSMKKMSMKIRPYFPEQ
T1 sequence (P12799 25-444): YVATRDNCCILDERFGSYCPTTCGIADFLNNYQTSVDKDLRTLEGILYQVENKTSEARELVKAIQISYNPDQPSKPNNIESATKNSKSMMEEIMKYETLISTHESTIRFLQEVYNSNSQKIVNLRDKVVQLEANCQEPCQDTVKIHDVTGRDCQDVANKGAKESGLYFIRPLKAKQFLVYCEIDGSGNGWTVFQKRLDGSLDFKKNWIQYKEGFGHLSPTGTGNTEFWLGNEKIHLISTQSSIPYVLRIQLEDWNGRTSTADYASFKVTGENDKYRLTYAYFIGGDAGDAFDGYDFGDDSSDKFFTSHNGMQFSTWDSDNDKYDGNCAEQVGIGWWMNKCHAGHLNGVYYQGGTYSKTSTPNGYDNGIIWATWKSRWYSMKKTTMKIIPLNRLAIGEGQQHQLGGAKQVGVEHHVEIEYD

[2] = biological target: T2, bovine serum albumin (BSA) (Bos taurus, UniProt P02769); experiment: intrinsic Trp fluorescence quenching; assay type: binding; settings: 0.8 mg/ml BSA, Tyrode buffer pH 7.4, 37 °C, 15 min
T2 construct: gene ALB; native mature serum albumin
T2 sequence (P02769 25-607): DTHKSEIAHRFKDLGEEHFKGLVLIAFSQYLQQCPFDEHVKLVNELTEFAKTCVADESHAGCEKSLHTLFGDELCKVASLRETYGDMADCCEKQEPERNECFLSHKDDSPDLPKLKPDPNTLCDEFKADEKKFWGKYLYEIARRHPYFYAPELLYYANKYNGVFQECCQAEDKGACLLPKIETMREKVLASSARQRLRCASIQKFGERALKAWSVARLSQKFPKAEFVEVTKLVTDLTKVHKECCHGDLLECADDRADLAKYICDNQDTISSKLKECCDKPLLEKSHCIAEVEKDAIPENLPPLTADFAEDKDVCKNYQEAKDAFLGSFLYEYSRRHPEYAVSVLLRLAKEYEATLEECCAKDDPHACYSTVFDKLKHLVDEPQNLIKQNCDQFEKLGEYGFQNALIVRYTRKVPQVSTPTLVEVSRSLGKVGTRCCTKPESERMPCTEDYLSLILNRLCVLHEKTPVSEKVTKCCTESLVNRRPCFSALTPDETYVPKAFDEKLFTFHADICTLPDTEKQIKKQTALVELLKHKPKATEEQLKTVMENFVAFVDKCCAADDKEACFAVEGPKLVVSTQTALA

With `C[C@@H]1O[C@@H](OC[C@H]2O[C@@H](Oc3c(-c4ccc(O)c(O)c4)oc4cc(O)cc(O)c4c3=O)[C@H](O)[C@@H](O)[C@@H]2O)[C@H](O)[C@H](O)[C@H]1O` [rutin] the “intrinsic Trp fluorescence quenching” value [1] was “Pre-incubation of rutin and RS with fibrinogen (Figures 6A,B) or albumin (Figures 6C,D) decreased the fluorescence” and the “intrinsic Trp fluorescence quenching” value [2] was “or albumin (Figures 6C,D) decreased the fluorescence of their Trp residues”.
